Measurements published in patent publication US20110269628A1, “Pesticidal Mixtures” (priority 2009, published 2011).

Key:
[1] = system: Imidazolinone tolerant soybeans; assay: Stomatal conductance gs (infrared gas analyzer), soybean pot experiment; type: in vivo; conditions: 1 DAA; application at BBCH 14; pyraclostrobin 0.3 L/ha (250 g/L), imazapyr 0.075 L/ha (480 g/L)
[2] = system: Imidazolinone tolerant soybeans; assay: Chlorophyll content (SPAD chlorophyll-meter), soybean pot experiment; type: in vivo; conditions: 1 DAA; application at BBCH 14; pyraclostrobin 0.6 L/ha (250 g/L), imazapyr 0.3 L/ha (480 g/L)

| Structure (SMILES) | OE = observed efficacy (%), increase of stomatal conductance vs untreated control [1] | SC = Stomatal Conductance (gs) [1] | Chlorophyll Content (SPAD) [2] | OE = observed efficacy (%), increase of chlorophyll content vs untreated control [2] |
| --- | --- | --- | --- | --- |
| COC(=O)N(OC)c1ccccc1COc1ccn(-c2ccc(Cl)cc2)n1 [Pyraclostrobin, pyraclostrobin] | 7.4% | 0.421 mol m^−2s^−1 | 27.6 | 2.6% |
| CC(C)C1(C)N=C(c2ncccc2C(=O)O)NC1=O (centres unmarked) [Imazapyr, imazapyr] | −3.1% | 0.380 mol m^−2s^−1 | 26.5 | −1.5% |
